Measurements as given in PubChem BioAssay AID651655 (NMMLSC, 2012).
The source made the active and inactive calls.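 How the source made its calls: active means viability at the highest tested concentration below 50%; inactive means the rest.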

Key:
[1] = test system: K562 vector control cells viability, CellTiter-Glo, 18 h; test: viability loss, cell-based, CellTiter-Glo luminescence, cherry picks 01-02, cytotoxicity control for ABCB6 inhibitor project, dose response (AID 651655)
[2] = as above; details: K562 vector control cells viability, CellTiter-Glo, 18 h; at 100 µM (top of the series)

Compound	EC50 [1]	viability [2]
CC(=O)Nc1ccc(NC(=O)c2nc(S(=O)(=O)Cc3ccccc3)ncc2Cl)cc1	911 nM	–
Cc1ccc(NC(=O)c2nc(S(=O)(=O)Cc3ccccc3)ncc2Cl)cc1	–	80.4% (inactive)
CCCc1nnc(NC(=O)c2nc(S(=O)(=O)Cc3cccc(C)c3)ncc2Cl)s1	–	71.2% (inactive)
CCOc1ccccc1NC(=O)c1nc(S(=O)(=O)Cc2ccccc2)ncc1Cl	2200 nM	–
Cc1cccc(CS(=O)(=O)c2ncc(Cl)c(C(=O)Nc3ccc(F)cc3)n2)c1	–	90.2% (inactive)
Cc1cccc(CS(=O)(=O)c2ncc(Cl)c(C(=O)Nc3nnc(C(C)C)s3)n2)c1	627 nM	–
Cc1ccc(CS(=O)(=O)c2ncc(Cl)c(C(=O)Nc3nnc(C(C)C)s3)n2)cc1	596 nM	–
Cc1ccccc1CS(=O)(=O)c1ncc(Cl)c(C(=O)Nc2ccc(F)cc2)n1	–	61.6% (inactive)
COC(=O)c1ccc(NC(=O)c2nc(S(=O)(=O)Cc3cccc(C)c3)ncc2Cl)cc1	–	82.7% (inactive)
CCc1ccc(NC(=O)c2nc(S(=O)(=O)Cc3ccccc3)ncc2Cl)cc1	390 nM	–
Cc1nnc(NC(=O)c2nc(S(=O)(=O)Cc3ccccc3)ncc2Cl)s1	2050 nM	–
CCOc1ccccc1NC(=O)c1nc(S(=O)(=O)Cc2cccc(C)c2)ncc1Cl	715 nM	–
Cc1ccc(CS(=O)(=O)c2ncc(Cl)c(C(=O)Nc3ccc(OC(F)F)cc3)n2)cc1	741 nM	–
Cc1ccc(NC(=O)c2nc(S(=O)(=O)Cc3ccccc3C)ncc2Cl)cc1C	758 nM	–
Cc1cccc(C)c1NC(=O)c1nc(S(=O)(=O)Cc2ccccc2)ncc1Cl	979 nM	–
O=C(Nc1ccc(F)cc1)c1nc(S(=O)(=O)Cc2ccccc2)ncc1Cl	–	81.6% (inactive)
C[N+](C)(C)CC1CCCC(C[N+](C)(C)C)C1=O (stereo not given)	–	67.5% (inactive)
CCN(CC)S(=O)(=O)c1cccc(-n2c(O)c(C=Nc3ccccc3C(=O)O)c3ccccc3c2=O)c1	–	79% (inactive)
CC(=O)Nc1ccc(NC(=O)c2nc(S(=O)(=O)Cc3cccc(C)c3)ncc2Cl)cc1	660 nM	–
CCOC(=O)c1ccc(NC(=O)c2nc(S(=O)(=O)Cc3ccccc3)ncc2Cl)cc1	1930 nM	–
